One assay concerns the target T1, human PHD2 (PHD2181-417) (Homo sapiens, UniProt Q9GZT9).
T1 construct: Smt (SUMO) tag (cleaved yes); made in house; host or cells: E. coli BL21 (pBAD vector)
Kind of assay: PHD enzymatic assay ([14C]-succinic acid production). Type of assay: biochemical. The settings on record: PHD2181-417, HIF-1α peptide 10 μM, average of results; read-out: Enzyme pIC50 (converted). An outline of the steps:
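Activity measured as [14C]-succinic acid formed from [5-14C]-2-oxoglutarate over 10 minutes, with peptide substrate at 10 μM, in Tris-HCl pH 7.5 buffer containing catalase, DTT and ascorbate. Unreacted oxoglutarate removed by DNP derivatisation; supernatant beta-counted.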

A further assay has as its system Hep-3B cells. Description: Cellular assay: erythropoietin secretion in Hep-3B cells. Particulars: Homo sapiens, Hep3B, 100 μM compound, 24 hours, percent of EPO secretion relative to assay control compound 7-[(4-Chloro-phenyl)-(5-methyl-isoxazol-3-ylamino)-methyl]-quinolin-8-ol, read-out: Cellular % EPO Stimulation. Type of assay: cell-based, human. An outline of the steps:
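Hep-3B cells in DMEM with 10% FBS, treated 24 h after plating with compounds at 100 μM final for a further 24 h. Secreted EPO in supernatant measured by MSD electrochemiluminescence sandwich immunoassay with anti-EPO detection antibody.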

T1 sequence (Q9GZT9 181-417): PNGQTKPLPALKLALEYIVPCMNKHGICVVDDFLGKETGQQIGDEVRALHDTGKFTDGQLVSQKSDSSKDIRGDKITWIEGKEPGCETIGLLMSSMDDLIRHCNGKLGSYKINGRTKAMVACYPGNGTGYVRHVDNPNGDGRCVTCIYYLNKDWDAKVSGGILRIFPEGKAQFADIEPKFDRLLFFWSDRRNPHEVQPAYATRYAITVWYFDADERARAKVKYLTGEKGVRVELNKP

For `Cc1cccc(-c2ccc3c(=O)[nH]c(-n4cc(C(=O)O)cn4)nc3c2)c1` [Example 189, 1-(4-Oxo-7-m-tolyl-3,4-dihydro-quinazolin-2-yl)-1H-pyrazole-4-carboxylic acid], the IC50 on human PHD2 (PHD2181-417) was 50.1 nM. In addition, the Emax at 100 µM in the assay on Hep-3B cells is 25%.

For `O=C(O)c1cnn(-c2nc3c(Sc4ccccc4)cccc3c(=O)[nH]2)c1` [Example 113, 1-(4-Oxo-8-phenylsulfanyl-3,4-dihydro-quinazolin-2-yl)-1H-pyrazole-4-carboxylic acid], the IC50 at human PHD2 (PHD2181-417) was 200 nM. Further, the Emax at 100 µM in the assay on Hep-3B cells turned out to be 17%.

For `Cc1cc(C)cc(Oc2ccc3nc(-n4cc(C(=O)O)cn4)[nH]c(=O)c3c2)c1` [Example 98, 1-[6-(3,5-dimethyl-phenoxy)-4-oxo-3,4-dihydro-quinazolin-2-yl]-1H-pyrazole-4-carboxylic acid], the IC50 at human PHD2 (PHD2181-417) was 20 nM. Further, the Emax at 100 µM with Hep-3B cells was 85%.

As to `O=C(O)c1cnn(-c2nc3ccc(SC(F)(F)F)cc3c(=O)[nH]2)c1` [Example 156, 1-(4-Oxo-6-trifluoromethylsulfanyl-3,4-dihydro-quinazolin-2-yl)-1H-pyrazole-4-carboxylic acid], the IC50 at human PHD2 (PHD2181-417) is 31.6 nM. For the same compound, in the assay with Hep-3B cells, the Emax at 100 µM turned out to be 19%.

Turning to `Cc1cccc(C)c1Oc1cc2c(=O)[nH]c(-n3cc(C(=O)O)cn3)nc2cc1Cl` [Example 49, 1-[7-Chloro-6-(2,6-dimethyl-phenoxy)-4-oxo-3,4-dihydro-quinazolin-2-yl]-1H-pyrazole-4-carboxylic acid], the IC50 on human PHD2 (PHD2181-417) was 31.6 nM. The Emax at 100 µM in the assay with Hep-3B cells was found to be 55%.

With `O=C(O)c1cnn(-c2nc3c(F)ccc(F)c3c(=O)[nH]2)c1` [Example 116, 1-(5,8-Difluoro-4-oxo-3,4-dihydro-quinazolin-2-yl)-1H-pyrazole-4-carboxylic acid], the IC50 at human PHD2 (PHD2181-417) was 200 nM. Moreover, in the assay on Hep-3B cells, the Emax at 100 µM was 17%.

For `O=C(O)c1cnn(-c2nc3ccc(-c4cccc(OC(F)(F)F)c4)cc3c(=O)[nH]2)c1` [Example 205, 1-[4-Oxo-6-(3-trifluoromethoxy-phenyl)-3,4-dihydro-quinazolin-2-yl]-1H-pyrazole-4-carboxylic acid], the IC50 at human PHD2 (PHD2181-417) is 25.1 nM. For the same compound, in the assay on Hep-3B cells, the Emax at 100 µM turned out to be 58%.

Turning to `O=C(O)c1cnn(-c2nc3ccc(Oc4cccc(-c5ccccc5)c4)cc3c(=O)[nH]2)c1` [Example 99, 1-[6-(biphenyl-3-yloxy)-4-oxo-3,4-dihydro-quinazolin-2-yl]-1H-pyrazole-4-carboxylic acid], the IC50 on human PHD2 (PHD2181-417) is 25.1 nM. Besides, in the assay with Hep-3B cells, the Emax at 100 µM is 81%.

As for `O=C(O)c1cnn(-c2nc3cc(F)c(Oc4c(Cl)cccc4Cl)c(F)c3c(=O)[nH]2)c1` [Example 101, 1-[6-(2,6-dichloro-phenoxy)-5,7-difluoro-4-oxo-3,4-dihydro-quinazolin-2-yl]-1H-pyrazole-4-carboxylic acid], the IC50 at human PHD2 (PHD2181-417) was 25.1 nM. For the same compound, in the assay with Hep-3B cells, the Emax at 100 µM came out at 24%.

In the case of `O=C(O)c1cnn(-c2nc3c(Br)cccc3c(=O)[nH]2)c1` [Example 11, 1-(8-Bromo-4-oxo-3,4-dihydro-quinazolin-2-yl)-1H-pyrazole-4-carboxylic acid], the IC50 on human PHD2 (PHD2181-417) is 158 nM. In the assay on Hep-3B cells, the Emax at 100 µM worked out at 40%.

On to `O=C(O)c1cnn(-c2nc3ccc(Cl)cc3c(=O)[nH]2)c1` [Example 153, 1-(6-Chloro-4-oxo-3,4-dihydro-quinazolin-2-yl)-1H-pyrazole-4-carboxylic acid], for which the IC50 at human PHD2 (PHD2181-417) is 39.8 nM. In addition, the Emax at 100 µM in the assay with Hep-3B cells amounted to 22%.

`O=C(O)c1cnn(-c2nc3cc(S(=O)(=O)c4ccccc4)ccc3c(=O)[nH]2)c1` [Example 81, 1-(7-Benzenesulfonyl-4-oxo-3,4-dihydro-quinazolin-2-yl)-1H-pyrazole-4-carboxylic acid]: the IC50 at human PHD2 (PHD2181-417) is 79.4 nM. The Emax at 100 µM in the assay on Hep-3B cells was 26%.

For the compound `O=C(O)c1cnn(-c2nc3cc(Oc4ccccc4)ccc3c(=O)[nH]2)c1` [Example 66, 1-(4-Oxo-7-phenoxy-3,4-dihydro-quinazolin-2-yl)-1H-pyrazole-4-carboxylic acid], the IC50 at human PHD2 (PHD2181-417) was 63.1 nM. In the assay on Hep-3B cells, the Emax at 100 µM came to 41%.

Consider `Cc1cccc(C)c1OCc1ccc2nc(-n3cc(C(=O)O)cn3)[nH]c(=O)c2c1` [Example 75, 1-[6-(2,6-Dimethyl-phenoxymethyl)-4-oxo-3,4-dihydro-quinazolin-2-yl]-1H-pyrazole-4-carboxylic acid], for which, on human PHD2 (PHD2181-417), the IC50 is 20 nM. In the assay with Hep-3B cells, the Emax at 100 µM amounted to 20%.

With `Cc1ccc2c(=O)[nH]c(-n3cc(C(=O)O)cn3)nc2c1` [Example 10, 1-(7-Methyl-4-oxo-3,4-dihydro-quinazolin-2-yl)-1H-pyrazole-4-carboxylic acid], the IC50 at human PHD2 (PHD2181-417) was 50.1 nM. In addition, the Emax at 100 µM with Hep-3B cells is 32%.

Take `O=C(O)c1cnn(-c2nc3cc(Cl)c([S+]([O-])C(F)(F)F)cc3c(=O)[nH]2)c1` (stereo not shown) [Example 160, 1-(7-Chloro-4-oxo-6-trifluoromethanesulfinyl-3,4-dihydro-quinazolin-2-yl)-1H-pyrazole-4-carboxylic acid]: the IC50 on human PHD2 (PHD2181-417) is 39.8 nM. The Emax at 100 µM in the assay on Hep-3B cells was 13%.

Turning to `Cc1cc2nc(-n3cc(C(=O)O)cn3)[nH]c(=O)c2cc1Oc1c(C)cccc1C` [Example 27, 1-[6-(2,6-Dimethyl-phenoxy)-7-methyl-4-oxo-3,4-dihydro-quinazolin-2-yl]-1H-pyrazole-4-carboxylic acid], the IC50 at human PHD2 (PHD2181-417) was 20 nM. In addition, the Emax at 100 µM in the assay on Hep-3B cells came to 10%.

(Values after patent US8937078B2, “Quinazolinones as prolyl hydroxylase inhibitors” (Janssen Pharmaceutica NV, priority 2009, dated 2015).)
